# Results: paper PMC11963566, “A phase I, single-center, randomized, open-label, three-period crossover study to evaluate the drug–drug interaction between ZSP1273 and oseltamivir in healthy Chinese subjects” (Antimicrobial Agents and Chemotherapy, 2025)
# Read-outs that look alike come from different tables or passages of the source.
# Legend:
# [1] = Safety assessment: adverse events (CTCAE 5.0, MedDRA 23.1) in healthy subjects; assay type: in vivo, human
# Description: Safety assessment was conducted from the first administration of the investigational drug until the end of the trial. Safety indicators included adverse events (AEs), serious adverse events (SAEs), clinical laboratory tests (hematology, biochemistry, and urinalysis), vital signs, physical examination, and 12-lead electrocardiogram.
# The severity of AE was assessed according to the CTCAE 5.0 standard and includes grades 1 to 5. Based on the criteria for determining causality between drugs and adverse events, the relationship was classified into five levels: definitely related, probably related, possibly related, probably not related, definitely not related. Among them, definitely related, probably related, and possibly related are defined as drug-related AEs.
# Adverse events were coded using Med DRA 23.1 Chinese ([30]) and analyzed based on system organ class (SOC) and preferred term (PT). Adverse events during the treatment period, drug-related adverse events, and serious adverse events were described by frequency, number of cases (n), and incidence rate (%) according to SOC, PT, and the highest severity classification.
# [2] = clinical; details: human; for AUC(0-inf): AUC0-∞,ss
# [3] = SOC Gastrointestinal disorders, probably related
# [4] = SOC General disorders and administration site conditions, possibly related
# [5] = SOC Infections and infestations, probably not related
# [6] = SOC Investigations, possibly related
# [7] = SOC Investigations, probably not related
# [8] = SOC Skin and subcutaneous tissue disorders, possibly related
# [9] = healthy subjects, 5 days dosing
# [10] = subjects with AUC_%Extrap >20.0% or Rsq <0.800 excluded
smiles,measurement,setting,value
"CCOC(=O)C1=C[C@@H](OC(CC)CC)[C@H](NC(C)=O)[C@@H](N)C1 [Oseltamivir, oseltamivir]",Gastrointestinal disorders (SOC): Cases (%),[1]; AE by system organ class,0 Cases (%)
same,Gastrointestinal disorders (SOC): Occurrences,[1]; AE by system organ class,0
same,General disorders and administration site conditions (SOC): Cases (%),[1]; AE by system organ class,0 Cases (%)
same,General disorders and administration site conditions (SOC): Occurrences,[1]; AE by system organ class,0
same,Infections and infestations (SOC): Cases (%),[1]; AE by system organ class,1 (2.9) Cases (%)
same,Infections and infestations (SOC): Occurrences,[1]; AE by system organ class,1
same,Investigations (SOC): Cases (%),[1]; AE by system organ class,6 (17.6) Cases (%)
same,Investigations (SOC): Occurrences,[1]; AE by system organ class,12
same,Skin and subcutaneous tissue disorders (SOC): Cases (%),[1]; AE by system organ class,1 (2.9) Cases (%)
same,Skin and subcutaneous tissue disorders (SOC): Occurrences,[1]; AE by system organ class,1
same,Diarrhea: Cases (%),[1]; [3],0 Cases (%)
same,Diarrhea: Occurrences,[1]; [3],0
same,Fever: Cases (%),[1]; [4],0 Cases (%)
same,Fever: Occurrences,[1]; [4],0
same,Upper respiratory tract infection (URTI): Cases (%),[1]; [5],1 (2.9) Cases (%)
same,Upper respiratory tract infection (URTI): Occurrences,[1]; [5],1
same,Decreased blood triglycerides: Cases (%),[1]; [6],1 (2.9) Cases (%)
same,Decreased blood triglycerides: Occurrences,[1]; [6],1
same,Decreased high-density lipoprotein (HDL): Cases (%),[1]; [6],2 (5.9) Cases (%)
same,Decreased high-density lipoprotein (HDL): Occurrences,[1]; [6],2
same,Decreased neutrophil count: Cases (%),[1]; [6],0 Cases (%)
same,Decreased neutrophil count: Occurrences,[1]; [6],0
same,Increased blood cholesterol: Cases (%),[1]; [6],0 Cases (%)
same,Increased blood cholesterol: Occurrences,[1]; [6],0
same,Increased blood creatinine: Cases (%),[1]; [6],0 Cases (%)
same,Increased blood creatinine: Occurrences,[1]; [6],0
same,Increased blood triglycerides: Cases (%),[1]; [6],1 (2.9) Cases (%)
same,Increased blood triglycerides: Occurrences,[1]; [6],1
same,Increased blood uric acid: Cases (%),[1]; [6],1 (2.9) Cases (%)
same,Increased blood uric acid: Occurrences,[1]; [6],1
same,Increased gamma-glutamyl transferase (GGT): Cases (%),[1]; [6],0 Cases (%)
same,Increased gamma-glutamyl transferase (GGT): Occurrences,[1]; [6],0
same,Increased lipase: Cases (%),[1]; [6],0 Cases (%)
same,Increased lipase: Occurrences,[1]; [6],0
same,Increased low-density lipoprotein (LDL): Cases (%),[1]; [6],0 Cases (%)
same,Increased low-density lipoprotein (LDL): Occurrences,[1]; [6],0
same,Crystals present in urine: Cases (%),[1]; [7],1 (2.9) Cases (%)
same,Crystals present in urine: Occurrences,[1]; [7],1
same,Decreased hemoglobin: Cases (%),[1]; [7],2 (5.9) Cases (%)
same,Decreased hemoglobin: Occurrences,[1]; [7],2
same,Increased urine specific gravity: Cases (%),[1]; [7],1 (2.9) Cases (%)
same,Increased urine specific gravity: Occurrences,[1]; [7],1
same,Nitrites present in urine: Cases (%),[1]; [7],1 (2.9) Cases (%)
same,Nitrites present in urine: Occurrences,[1]; [7],1
same,Positive urine occult blood: Cases (%),[1]; [7],1 (2.9) Cases (%)
same,Positive urine occult blood: Occurrences,[1]; [7],1
same,Protein detected in urine: Cases (%),[1]; [7],1 (2.9) Cases (%)
same,Protein detected in urine: Occurrences,[1]; [7],1
same,Acneiform dermatitis: Cases (%),[1]; [8],1 (2.9) Cases (%)
same,Acneiform dermatitis: Occurrences,[1]; [8],1
same,Maculopapular rash: Cases (%),[1]; [8],0 Cases (%)
same,Maculopapular rash: Occurrences,[1]; [8],0
same,"increased blood triglycerides, incidence",[1]; drug-related adverse event,2.9%
same,At least one treatment-emergent adverse event (TEAE): Cases (%),[1]; [9],7 (20.6) Cases (%)
same,At least one treatment-emergent adverse event (TEAE): Occurrences,[1]; [9],14
same,At least one treatment-emergent adverse event related to drugs: Cases (%),[1]; [9],5 (14.7) Cases (%)
same,At least one treatment-emergent adverse event related to drugs: Occurrences,[1]; [9],6
same,"AUC0-t,ss, geometric mean ratio co-administration/monotherapy","human, in vivo",92.7%
same,"AUC0-τ,ss, geometric mean ratio co-administration/monotherapy","human, in vivo",92.2%
same,"AUC0-∞,ss, geometric mean ratio co-administration/monotherapy","human, in vivo",92.6%
same,"AUC0-∞,ss, intra-individual coefficient of variation","human, in vivo",11.8%
same,"Cmax,ss, geometric mean ratio co-administration/monotherapy","human, in vivo",60.1%
same,"decrease in Cmax,ss after co-administration","human, in vivo",39.9%
same,CLss/F,"human, in vivo, po",459.8 ± 106.3 (23.1%) L/h
same,"AUC0-∞,ss, geometric mean ratio co-administration/monotherapy",[10],93.5%
same,"AUC0-∞,ss, intra-individual coefficient of variation",[10],10.7%
same,AUC(0-t),"[2]; in vivo, AUC0-t,ss, geometric mean",170 ng·h/mL
same,AUC,"[2]; in vivo, AUC0-τ,ss, geometric mean",167 ng·h/mL
same,AUC(0-inf),"[2]; in vivo, geometric mean",175 ng·h/mL
same,AUC(0-inf),"[2]; in vivo, geometric mean, monotherapy, subjects with AUC_%Extrap >20.0% or Rsq <0.800 excluded",175 ng·h/mL
same,Cmax,"[2]; in vivo, Cmax,ss, geometric mean",91.2 ng/mL
same,Tmax,"[2]; in vivo, po, Tmax,ss",0.5 h
same,Vd/F,"[2]; in vivo, po, Vz/F",3070 L
same,half-life,"[2]; in vivo, po, t1/2,ss",4.5 ± 4.8 h
same,AUC(0-inf),"[2]; plasma, oral, geometric mean, co-administration ZSP1273 + oseltamivir, plasma, day 5, all subjects",163 ng·h/mL
same,k el,"[2]; plasma, po, 75 mg",7.78e-05 s⁻¹
